Test results taken from US20060282132A1, “Photodynamic therapy equipment, method for controlling photodynamic therapy equipment and method of photodynamic method” (KEIO UNIVERSITY, priority 2003, published 2006).

Assays:
[1] = concentration 6 μg/ml
[2] = system: mouse derived macrophage like cell J774.1
Method: With regard to arteriosclerotic athero model, mouse derived macrophage like cell J774.1 was used. PDT was performed after contacting with the second generation photosensitive substance ATX-S10 (ATX-S10 Na(II) (K.K. Hikari Chemical Lab.)) with good excretion, concentration of 6 μg/ml for 24 hours.
Irradiation of the light was performed with the light source: excimer dye laser (EDL-1, Hamamatsu Photonix Co., wavelength 670 nm, pulse width 10 ns); pulse energy density 1.2 to 9.5 mJ/cm^2 (corresponding to peak intensity […]); and repetition frequency 5 to 80 Hz. PDT effect as evaluated by a rate of cell death using MTT after performing for 24 hours.
Measurement was performed in concentration of administered photosensitive substance at 25 μg/ml and 50 μg/ml.

C=Cc1c(C)c2cc3nc(cc4[nH]c(cc5nc(cc1[nH]2)C(C)=C5CCC(=O)NC(CC(=O)[O-])C(=O)[O-])c(CCC(=O)NC(CC(=O)[O-])C(=O)[O-])c4C)C(C)(O)/C3=C\C=NO.[Na+].[Na+].[Na+].[Na+] (stereo not shown) [ATX-S10, Iminochlorin aspartic acid derivative]
changes of absorption (bleaching) with changing irradiation energy density [1]: depends on total irradiation energy (J/cm^2) and not on peak intensity | PDT effect (rate of cell death) ([2]; 6 μg/ml for 24 hours, excimer dye laser 670 nm, pulse width 10 ns, high pulse energy density (high peak intensity), repetition frequency 5 to 80 Hz, MTT after 24 hours): PDT effect almost disappeared | rate of cell death at maximum ([2]; 6 μg/ml for 24 hours, excimer dye laser 670 nm, pulse width 10 ns, low pulse energy density (low peak intensity), repetition frequency 5 to 80 Hz, MTT after 24 hours): ≤ 70% | rate of cell death with changing irradiation energy density ([2]; 25 μg/ml and 50 μg/ml, same irradiation energy density): rate of cell death is different, if the concentration of photosensitive substance is different
